Results: ChEMBL document CHEMBL1201862, “PubChem BioAssay data set” (2004)
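Results reflect a 48-hour exposure of cells in 96-well plates to compound at five concentrations. Abbreviation: GI50, concentration required for 50% inhibition of growth.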 Activity calls are given as the source filed them. No stated cut-off is given here; in the data, active = GI50 up to about 1.1 µM and inactive = higher.

How the values were obtained:
Assay in all cases: NCI tumour cell line growth inhibition, 48 h
A549 = system: A549
SW-620 = system: SW-620
Malme-3M = system: Malme-3M
CAKI-1 = system: CAKI-1
SR = system: SR
786-0 = system: 786-0
Hs-578T = system: Hs-578T
RXF 393 = system: RXF 393
ACHN = system: ACHN
KM12 = system: KM12
OVCAR-5 = system: OVCAR-5
SF-539 = system: SF-539
CCRF-CEM = system: CCRF-CEM
U-251 = system: U-251
LOX IMVI = system: LOX IMVI
IGROV-1 = system: IGROV-1
UACC-62 = system: UACC-62
MDA-N = system: MDA-N
EKVX = system: EKVX
SNB-19 = system: SNB-19

Row | Compound | GI50 (A549) | GI50 (SW-620) | GI50 (Malme-3M) | GI50 (CAKI-1) | GI50 (SR) | GI50 (786-0) | GI50 (Hs-578T) | GI50 (RXF 393) | GI50 (ACHN) | GI50 (KM12) | GI50 (OVCAR-5) | GI50 (SF-539) | GI50 (CCRF-CEM) | GI50 (U-251) | GI50 (LOX IMVI) | GI50 (IGROV-1) | GI50 (UACC-62) | GI50 (MDA-N) | GI50 (EKVX) | GI50 (SNB-19)
1 | CN(C1=NS(=O)(=O)N=C(N(C)c2ccccc2)O1)c1ccccc1 | 21.2 µM (inactive) | 14 µM (inactive) | 24.2 µM (inactive) | 22.1 µM (inactive) | 7.06 µM (inactive) | 24.9 µM (inactive) | 27.7 µM (inactive) | 3.55 µM (inactive) | 17.3 µM (inactive) | 17.8 µM (inactive) | 23.1 µM (inactive) | 21.6 µM (inactive) | 13.4 µM (inactive) | 16 µM (inactive) | 13.3 µM (inactive) | 23.3 µM (inactive) | 14.2 µM (inactive) | 15 µM (inactive) | 22.2 µM (inactive) | 18.7 µM (inactive)
2 | CC(C)OC(=O)c1cc(NC(=S)OC(C)C)ccc1Cl | 25.2 µM (inactive) | 28.4 µM (inactive) | 33.6 µM (inactive) | 15.1 µM (inactive) | 28.6 µM (inactive) | 23.4 µM (inactive) | 17.1 µM (inactive) | 22.3 µM (inactive) | 22.8 µM (inactive) | 13.8 µM (inactive) | 25.1 µM (inactive) | 14.8 µM (inactive) | 39.3 µM (inactive) | 22.9 µM (inactive) | 17.2 µM (inactive) | 28.8 µM (inactive) | 16.1 µM (inactive) | 23.1 µM (inactive) | 7.8 µM (inactive) | 27 µM (inactive)
3 | CC(=O)N(O)[C@@H]1CC[C@H](n2cnc3c(N)ncnc32)C1 | > 100 µM (inactive) | > 100 µM (inactive) | > 100 µM (inactive) | > 100 µM (inactive) | > 100 µM (inactive) | > 100 µM (inactive) | > 100 µM (inactive) | > 100 µM (inactive) | > 100 µM (inactive) | > 100 µM (inactive) | > 100 µM (inactive) | > 100 µM (inactive) | > 100 µM (inactive) | > 100 µM (inactive) | > 100 µM (inactive) | > 100 µM (inactive) | > 100 µM (inactive) | > 100 µM (inactive) | > 100 µM (inactive) | > 100 µM (inactive)
4 | CCCCCC(=O)OC[n+]1ccc2c(C)c3[nH]c4ccc(OC)cc4c3c(C)c2c1 | 0.284 µM (active) | 0.0735 µM (active) | 1.37 µM (inactive) | 1.06 µM (active) | 0.0498 µM (active) | 0.0843 µM (active) | 1.11 µM (active) | 0.208 µM (active) | 0.106 µM (active) | 0.225 µM (active) | 0.556 µM (active) | 0.238 µM (active) | 0.0805 µM (active) | 0.321 µM (active) | 0.224 µM (active) | 0.234 µM (active) | 0.966 µM (active) | 0.332 µM (active) | 0.925 µM (active) | 0.189 µM (active)
5 | N=c1ccn2c(n1)OC1C(OP(=O)(O)O)C(CO)OC12 (stereo not given) | 0.575 µM (active) | > 47.2 µM (inactive) | > 100 µM (inactive) | > 24.5 µM (inactive) | 3.12 µM (inactive) | 9.77 µM (inactive) | > 100 µM (inactive) | > 100 µM (inactive) | 1.06 µM (active) | > 100 µM (inactive) | > 100 µM (inactive) | 41.1 µM (inactive) | 0.0467 µM (active) | > 57.8 µM (inactive) | 4.52 µM (inactive) | > 80.7 µM (inactive) | 10.4 µM (inactive) | > 83.9 µM (inactive) | > 100 µM (inactive) | 25 µM (inactive)
6 | c1ccc(C2=Nn3c(CCCCCCCCc4nnc5n4N=C(c4ccccc4)CS5)nnc3SC2)cc1 | > 100 µM (inactive) | > 100 µM (inactive) | 28.2 µM (inactive) | 41.2 µM (inactive) | > 68.5 µM (inactive) | 14.8 µM (inactive) | 21.1 µM (inactive) | 20.5 µM (inactive) | 40.6 µM (inactive) | > 100 µM (inactive) | > 75.9 µM (inactive) | 3.45 µM (inactive) | 22.6 µM (inactive) | 15.6 µM (inactive) | 45.4 µM (inactive) | > 100 µM (inactive) | 46.8 µM (inactive) | > 100 µM (inactive) | 76.2 µM (inactive) | 18.4 µM (inactive)
7 | CN(C)c1ncnc2c1ncn2CCn1cnc2c(N(C)C)ncnc21 | > 100 µM (inactive) | > 100 µM (inactive) | > 100 µM (inactive) | > 100 µM (inactive) | 2.28 µM (inactive) | > 100 µM (inactive) | > 100 µM (inactive) | > 100 µM (inactive) | > 100 µM (inactive) | > 100 µM (inactive) | > 100 µM (inactive) | > 100 µM (inactive) | > 100 µM (inactive) | > 100 µM (inactive) | > 100 µM (inactive) | > 100 µM (inactive) | > 100 µM (inactive) | > 100 µM (inactive) | > 100 µM (inactive) | > 100 µM (inactive)
8 | C=CCCC(=O)CC(O)(C(F)(F)F)C(F)(F)F | > 100 µM (inactive) | > 100 µM (inactive) | > 100 µM (inactive) | > 100 µM (inactive) | > 100 µM (inactive) | > 100 µM (inactive) | > 100 µM (inactive) | > 100 µM (inactive) | > 100 µM (inactive) | > 100 µM (inactive) | > 100 µM (inactive) | > 100 µM (inactive) | > 100 µM (inactive) | > 100 µM (inactive) | > 100 µM (inactive) | > 100 µM (inactive) | > 100 µM (inactive) | > 100 µM (inactive) | > 100 µM (inactive) | > 100 µM (inactive)
9 | CCNc1nc2ccccc2nc1NCC | > 100 µM (inactive) | > 100 µM (inactive) | > 100 µM (inactive) | > 100 µM (inactive) | > 100 µM (inactive) | > 100 µM (inactive) | > 100 µM (inactive) | > 100 µM (inactive) | > 100 µM (inactive) | > 100 µM (inactive) | > 100 µM (inactive) | > 100 µM (inactive) | > 100 µM (inactive) | > 100 µM (inactive) | > 100 µM (inactive) | > 100 µM (inactive) | > 100 µM (inactive) | > 100 µM (inactive) | > 100 µM (inactive) | > 100 µM (inactive)
10 | CC(=O)O[C@@H]1C(C2CCCCC2)C=[N+]([O-])O[C@@H]1OC1CCCC1(c1ccccc1)c1ccccc1 (stereo not given in full) | 14.8 µM (inactive) | 2.04 µM (inactive) | 2.99 µM (inactive) | 5.33 µM (inactive) | 2.62 µM (inactive) | 3.76 µM (inactive) | 11 µM (inactive) | 2.58 µM (inactive) | 2.21 µM (inactive) | 8.04 µM (inactive) | 15.8 µM (inactive) | 3.94 µM (inactive) | 2.63 µM (inactive) | 12.5 µM (inactive) | 1.94 µM (inactive) | 3.21 µM (inactive) | 5.81 µM (inactive) | 4.28 µM (inactive) | 15.7 µM (inactive) | 16.5 µM (inactive)
11 | COc1ccccc1C1c2cc3c(cc2OC2(OC)COC(=O)C12)OCO3 (stereo not given) | 17.4 µM (inactive) | 6.7 µM (inactive) | 15.2 µM (inactive) | 20 µM (inactive) | 3.8 µM (inactive) | 19.1 µM (inactive) | 5.83 µM (inactive) | 12.3 µM (inactive) | 22.2 µM (inactive) | 4.92 µM (inactive) | 44.1 µM (inactive) | 12.3 µM (inactive) | 12.9 µM (inactive) | 14.2 µM (inactive) | 9.02 µM (inactive) | 13.1 µM (inactive) | 6.04 µM (inactive) | 2.24 µM (inactive) | 24.7 µM (inactive) | 21.2 µM (inactive)
12 | CCn1cc(C(=O)O)c(=O)c2cc(F)c(N3CCN(CN4C(=O)/C(=N\c5ncc(Cc6cc(OC)c(OC)c(OC)c6)c(N)n5)c5cc(Cl)ccc54)CC3)cc21 | > 100 µM (inactive) | 5.3 µM (inactive) | > 100 µM (inactive) | > 100 µM (inactive) | 41.4 µM (inactive) | > 100 µM (inactive) | > 100 µM (inactive) | > 100 µM (inactive) | > 100 µM (inactive) | 50.2 µM (inactive) | > 100 µM (inactive) | > 100 µM (inactive) | 91 µM (inactive) | 61.4 µM (inactive) | > 100 µM (inactive) | 8.24 µM (inactive) | > 100 µM (inactive) | 45.5 µM (inactive) | > 100 µM (inactive) | > 100 µM (inactive)
13 | NC(Cc1cccnn1)C(=O)O (stereo not given) | > 100 µM (inactive) | > 100 µM (inactive) | > 100 µM (inactive) | > 100 µM (inactive) | > 100 µM (inactive) | > 100 µM (inactive) | > 100 µM (inactive) | > 100 µM (inactive) | > 100 µM (inactive) | > 100 µM (inactive) | > 100 µM (inactive) | > 100 µM (inactive) | > 100 µM (inactive) | > 100 µM (inactive) | > 100 µM (inactive) | > 100 µM (inactive) | > 100 µM (inactive) | > 100 µM (inactive) | > 100 µM (inactive) | > 100 µM (inactive)
14 | CN1CCCC(OC(=O)c2cc3cc(CCl)ccc3oc2=O)C1 (stereo not given) | 29.8 µM (inactive) | 22.7 µM (inactive) | 17.6 µM (inactive) | 23.7 µM (inactive) | 21.9 µM (inactive) | 23.8 µM (inactive) | 21.9 µM (inactive) | 23.7 µM (inactive) | 23.3 µM (inactive) | 24 µM (inactive) | 21.6 µM (inactive) | 27 µM (inactive) | 19.1 µM (inactive) | 14.9 µM (inactive) | 17 µM (inactive) | 28.6 µM (inactive) | 17.3 µM (inactive) | 18.2 µM (inactive) | 31.2 µM (inactive) | 27.7 µM (inactive)
